Results published in patent publication US5939399A, “Polyene antibiotics, 3874 H1 to H6, processes for their preparation and use” (Hoechst Aktiengesellschaft, priority 1996, dated 1999).
Converted amounts (≈) assume the structure as drawn.

Tests used:
A. flavus ATCC 9643 = assay: In vitro microdilution test in RPMI 1640 medium; format: cell-based; conditions: Aspergillus flavus, ATCC9643, 144 h, mold A. flavus ATCC 9643, 6 days at 30° C., read-out: Minimum inhibitory concentration MIC
Description: (§1) In vitro activity on dermatophytes, yeasts and molds
(§2) (microdilution test in RPMI 1640 medium)
(§3) Incubation: 48 h at 35° C. (yeasts) or 6 days at 30° C. (dermatophytes and molds)

A. fumigatus ATCC 9197 = assay: In vitro microdilution test in RPMI 1640 medium; format: cell-based; conditions: Aspergillus fumigatus, ATCC9197, 144 h, mold A. fumigatus ATCC 9197, 6 days at 30° C., read-out: Minimum inhibitory concentration MIC
Description: as §1, §2, §3

A. niger ATCC 16404 = assay: In vitro microdilution test in RPMI 1640 medium; format: cell-based; conditions: Aspergillus niger, ATCC16404, 144 h, mold A. niger ATCC 16404, 6 days at 30° C., read-out: Minimum inhibitory concentration MIC
Description: as §1, §2, §3

C. albicans ATCC 90028 = assay: In vitro microdilution test in RPMI 1640 medium; format: cell-based; conditions: Candida albicans, ATCC90028, yeast C. albicans ATCC 90028, 48 h at 35° C., read-out: Minimum inhibitory concentration MIC
Description: as §1, §2, §3

C. albicans ATCC 90029 = assay: In vitro microdilution test in RPMI 1640 medium; format: cell-based; conditions: Candida albicans, ATCC90029, yeast C. albicans ATCC 90029, 48 h at 35° C., read-out: Minimum inhibitory concentration MIC
Description: as §1, §2, §3

C. glabrata ATCC 90030 = assay: In vitro microdilution test in RPMI 1640 medium; format: cell-based; conditions: Nakaseomyces glabratus, ATCC90030, yeast C. glabrata ATCC 90030, 48 h at 35° C., read-out: Minimum inhibitory concentration MIC
Description: as §1, §2, §3

C. glabrata Berlin 12 = assay: In vitro microdilution test in RPMI 1640 medium; format: cell-based; conditions: Nakaseomyces glabratus, BERLIN12, yeast C. glabrata Berlin 12, 48 h at 35° C., read-out: Minimum inhibitory concentration MIC
Description: as §1, §2, §3

C. krusei 203/230 = assay: In vitro microdilution test in RPMI 1640 medium; format: cell-based; conditions: Pichia kudriavzevii, yeast C. krusei 203/230, 48 h at 35° C., read-out: Minimum inhibitory concentration MIC
Description: as §1, §2, §3

C. krusei Berlin 1 = assay: In vitro microdilution test in RPMI 1640 medium; format: cell-based; conditions: Pichia kudriavzevii, BERLIN1, yeast C. krusei Berlin 1, 48 h at 35° C., read-out: Minimum inhibitory concentration MIC
Description: as §1, §2, §3

C. neoformans ATCC 90112 = assay: In vitro microdilution test in RPMI 1640 medium; format: cell-based; conditions: Cryptococcus neoformans, ATCC90112, yeast C. neoformans ATCC 90112, 48 h at 35° C., read-out: Minimum inhibitory concentration MIC
Description: as §1, §2, §3

[1] = test system: C. parapsilosis ATCC 90018; assay: In vitro microdilution test in RPMI 1640 medium; format: cell-based; conditions: Lodderomyces parapsilosis, ATCC90018, yeast C. parapsilosis ATCC 90018, 48 h at 35° C., read-out: Minimum inhibitory concentration MIC
Description: as §1, §2, §3

[2] = test system: C. pseudotropicalis 202/218; assay: In vitro microdilution test in RPMI 1640 medium; format: cell-based; conditions: Kluyveromyces marxianus, yeast C. pseudotropicalis 202/218, 48 h at 35° C., read-out: Minimum inhibitory concentration MIC
Description: as §1, §2, §3

C. tropicalis 201/201 = assay: In vitro microdilution test in RPMI 1640 medium; format: cell-based; conditions: Candida tropicalis, yeast C. tropicalis 201/201, 48 h at 35° C., read-out: Minimum inhibitory concentration MIC
Description: as §1, §2, §3

C. tropicalis 201/202 = assay: In vitro microdilution test in RPMI 1640 medium; format: cell-based; conditions: Candida tropicalis, yeast C. tropicalis 201/202, 48 h at 35° C., read-out: Minimum inhibitory concentration MIC
Description: as §1, §2, §3

E. floccosum 190/143 = assay: In vitro microdilution test in RPMI 1640 medium; format: cell-based; conditions: Epidermophyton floccosum, 144 h, dermatophyte E. floccosum 190/143, 6 days at 30° C., read-out: Minimum inhibitory concentration MIC
Description: as §1, §2, §3

T. mentagrophytes 100/25 = assay: In vitro microdilution test in RPMI 1640 medium; format: cell-based; conditions: Trichophyton mentagrophytes, 144 h, dermatophyte T. mentagrophytes 100/25, 6 days at 30° C., read-out: Minimum inhibitory concentration MIC
Description: as §1, §2, §3

T. rubrum 101/58 = assay: In vitro microdilution test in RPMI 1640 medium; format: cell-based; conditions: Trichophyton rubrum, 144 h, dermatophyte T. rubrum 101/58, 6 days at 30° C., read-out: Minimum inhibitory concentration MIC
Description: as §1, §2, §3

test microbes = assay: Agar diffusion test, zones of inhibition; format: cell-based; conditions: for zone of inhibition at 25 µg/mL: concentration 0.025 mg/mL; for zone of inhibition at 25 µg/mL / zone of inhibition at 50 µg/mL / zone of inhibition at 100 µg/mL / zone of inhibition at 200 µg/mL / Zone of inhibition (diameter): agar layer; for zone of inhibition at 25 µg/mL / zone of inhibition at 50 µg/mL / zone of inhibition at 100 µg/mL / zone of inhibition at 200 µg/mL / zone of inhibition at 6.3 µg/mL / zone of inhibition at 12.5 µg/mL: read-out: Zone of inhibition (diameter); for zone of inhibition at 50 µg/mL: concentration 0.05 mg/mL; for zone of inhibition at 100 µg/mL: concentration 0.1 mg/mL; for zone of inhibition at 200 µg/mL: concentration 0.2 mg/mL
Excerpt: The superiority of the antibiotics according to the invention is shown particularly in so-called diffusion tests in which the compounds diffuse in an agar layer containing the test microbes. The diameter of the zones of inhibition is then a measure of the activity of the antibiotics (Table 3).

[3] = Solubility in organic solvents; format: physicochemical
Chemical stability = format: physicochemical; conditions: for Stability (unstable in / on exposure to): acidic and strongly alkaline solution, light, heat and oxygen; for Stability (stable in): neutral and weakly alkaline medium
[4] = Binding to ergosterol compared with cholesterol

| Structure (SMILES) | MIC (A. flavus ATCC 9643) [µg/mL] | MIC (A. fumigatus ATCC 9197) [µg/mL] | MIC (A. niger ATCC 16404) [µg/mL] | MIC (C. albicans ATCC 90028) [µg/mL] | MIC (C. albicans ATCC 90029) [µg/mL] | MIC (C. glabrata ATCC 90030) [µg/mL] | MIC (C. glabrata Berlin 12) [µg/mL] | MIC (C. krusei 203/230) [µg/mL] | MIC (C. krusei Berlin 1) [µg/mL] | MIC (C. neoformans ATCC 90112) [µg/mL] | MIC [1] [µg/mL] | MIC [2] [µg/mL] | MIC (C. tropicalis 201/201) [µg/mL] | zone of inhibition at 25 µg/mL (test microbes) [mm] | zone of inhibition at 50 µg/mL (test microbes) [mm] | zone of inhibition at 100 µg/mL (test microbes) [mm] | zone of inhibition at 200 µg/mL (test microbes) [mm] | Solubility [3] | Stability (unstable in / on exposure to) (Chemical stability) | Stability (stable in) (Chemical stability) | other results |
| --- | --- | --- | --- | --- | --- | --- | --- | --- | --- | --- | --- | --- | --- | --- | --- | --- | --- | --- | --- | --- | --- |
| CC1/C=C/C=C/C=C\C=C/C=C/C=C/C=C/C(OC2OC(C)C(O)C(N)C2O)CC2OC(O)(CC(O)CC(O)CC(O)CCCC(O)CC(O)CC(=O)OC1C(C)CCC(O)CC(=O)c1ccc(N)cc1)CC(O)C2C(=O)O (stereo not drawn) [3874 H1] | 8 (≈ 7.28 µM) | 4 (≈ 3.64 µM) | 2 (≈ 1.82 µM) | 2 (≈ 1.82 µM) | 2 (≈ 1.82 µM) | 4 (≈ 3.64 µM) | 2 (≈ 1.82 µM) | 4 (≈ 3.64 µM) | 2 (≈ 1.82 µM) | 2 (≈ 1.82 µM) | 4 (≈ 3.64 µM) | 2 (≈ 1.82 µM) | 2 (≈ 1.82 µM) | 21 | 24 | 25 | 26 | soluble in methanol, acetonitrile and chloroform | unstable in acidic and strongly alkaline solution and on exposure to light, heat and oxygen | Stable in neutral and weakly alkaline medium | MIC (C. tropicalis 201/202): 2 µg/mL (≈ 1.82 µM); MIC (E. floccosum 190/143): 16 µg/mL (≈ 14.6 µM); MIC (T. mentagrophytes 100/25): 4 µg/mL (≈ 3.64 µM); MIC (T. rubrum 101/58): 16 µg/mL (≈ 14.6 µM); zone of inhibition at 6.3 µg/mL (test microbes): 17 mm; zone of inhibition at 12.5 µg/mL (test microbes): 19 mm |
| CNc1ccc(C(=O)CC(O)CCC(C)C2OC(=O)CC(O)CC(O)CCCC(O)CC(O)CC(O)CC3(O)CC(O)C(C(=O)O)C(CC(OC4OC(C)C(O)C(N)C4O)/C=C/C=C/C=C/C=C\C=C/C=C/C=C/C2C)O3)cc1 (stereo not drawn) [3874 H2] | – | – | – | – | – | – | – | – | – | – | – | – | – | – | – | – | – | soluble in methanol, acetonitrile and chloroform | unstable in acidic and strongly alkaline solution and on exposure to light, heat and oxygen | Stable in neutral and weakly alkaline medium | – |
| C/C=C/C=C/C(=O)CC(O)CCC(C)C1OC(=O)CC(O)CC(O)CCCC(O)CC(O)CC(O)CC2(O)CC(O)C(C(=O)O)C(CC(OC3OC(C)C(O)C(N)C3O)/C=C/C=C/C=C/C=C\C=C/C=C/C=C/C1C)O2 (stereo not drawn) [3874 H3] | 16 (≈ 14.9 µM) | 4 (≈ 3.72 µM) | 8 (≈ 7.45 µM) | 4 (≈ 3.72 µM) | 4 (≈ 3.72 µM) | 4 (≈ 3.72 µM) | 4 (≈ 3.72 µM) | 4 (≈ 3.72 µM) | 2 (≈ 1.86 µM) | 2 (≈ 1.86 µM) | 4 (≈ 3.72 µM) | 4 (≈ 3.72 µM) | 4 (≈ 3.72 µM) | 14 | 18 | 20 | 22 | soluble in methanol and other lower alcohols, acetonitrile and chloroform | unstable in acidic and strongly alkaline solution and on exposure to light, heat and oxygen | Stable in neutral and weakly alkaline medium | MIC (C. tropicalis 201/202): 4 µg/mL (≈ 3.72 µM); MIC (E. floccosum 190/143): 16 µg/mL (≈ 14.9 µM); MIC (T. mentagrophytes 100/25): 8 µg/mL (≈ 7.45 µM); MIC (T. rubrum 101/58): 16 µg/mL (≈ 14.9 µM); zone of inhibition at 6.3 µg/mL (test microbes): 12 mm; zone of inhibition at 12.5 µg/mL (test microbes): 13 mm; Binding to ergosterol versus cholesterol [4]: bind more strongly to ergosterol than to cholesterol |
| C[C@@H]1[C@H](O)[C@@H](C)/C=C/C=C/C=C/C=C/C=C/C=C/C=C/[C@H](O[C@@H]2O[C@H](C)[C@@H](O)[C@H](N)[C@@H]2O)C[C@@H]2O[C@](O)(C[C@@H](O)C[C@@H](O)[C@H](O)CC[C@@H](O)C[C@@H](O)CC(=O)O[C@H]1C)C[C@H](O)[C@H]2C(=O)O [Amphotericin B, amphotericin B, reference compound] | – | – | – | – | – | – | – | – | – | – | – | – | – | 8 | 10 | 12 | 14 | only very low solubility in the said solvents and others | – | – | Zone of inhibition (diameter) (test microbes; concentration 0.0063 mg/mL): .o slashed.; Zone of inhibition (diameter) (test microbes; concentration 0.0125 mg/mL): .o slashed. |
